# Test results from patent publication US20070128217A1 (priority 2003, published 2007).
# Experiments:
# [1] = system: antibodies in sera from SARS patients (sera 1a, 1b, 2, 6, 37, 62, London, SARS-yellow, SARS-green); format: binding, human; set-up: Binding of serum 6 to linear peptides of protein X1 of SARS-CoV Urbani / Binding of serum 37 to linear peptides of protein X1 of SARS-CoV Urbani / Binding of serum 6 to looped/cyclic peptide (PEPSCAN-ELISA) / Binding of serum 37 to looped/cyclic peptide (PEPSCAN-ELISA) / Binding of serum 37 to looped/cyclic peptides of protein X1 of SARS-CoV Urbani / Binding of serum 6 to linear peptides of protein X2 / Binding of serum 37 to linear peptides of protein X2 / Binding of serum 37 to looped/cyclic peptides of protein X2 of SARS-CoV Urbani / Binding of serum 6 to linear peptides of protein M of SARS-CoV Urbani / Binding of serum 37 to linear peptides of protein M of SARS-CoV Urbani / Binding of serum 6 to looped/cyclic peptides of protein M of SARS-CoV Urbani / Binding of serum 37 to looped/cyclic peptides of protein M of SARS-CoV Urbani / Binding of serum 6 to linear peptides of protein X3 of SARS-CoV Urbani / Binding of serum 37 to linear peptides of protein X3 of SARS-CoV Urbani / Binding of serum 37 to looped/cyclic peptides of protein X3 of SARS-CoV Urbani / Binding of serum 6 to linear peptides of protein X4 of SARS-CoV Urbani / Binding of serum 37 to linear peptides of protein X4 of SARS-CoV Urbani / Binding of serum 37 to looped/cyclic peptides of protein X4 of SARS-CoV Urbani / Binding of serum 6 to linear peptides of protein X5 of SARS-CoV Urbani / Binding of serum 37 to linear peptides of protein X5 of SARS-CoV Urbani / Binding of serum 37 to looped/cyclic peptides of protein X5 of SARS-CoV Urbani / Binding of serum 6 to linear peptides of protein N of SARS-CoV Urbani / Binding of serum 37 to linear peptides of protein N of SARS-CoV Urbani / Binding of serum 6 to linear peptide (PEPSCAN-ELISA) / Binding of serum 1a to looped/cyclic peptides of protein N of SARS-CoV Urbani / Binding of serum 1b to looped/cyclic peptides of protein N of SARS-CoV Urbani / Binding of serum 2 to looped/cyclic peptides of protein N of SARS-CoV Urbani / Binding of serum 6 to looped/cyclic peptides of protein N of SARS-CoV Urbani / Binding of serum 37 to looped/cyclic peptides of protein N of SARS-CoV Urbani / Binding of serum 62 to looped/cyclic peptides of protein N of SARS-CoV Urbani / Binding of serum London to looped/cyclic peptides of protein N of SARS-CoV Urbani / Binding of serum SARS-green to looped/cyclic peptides of protein N of SARS-CoV Urbani: unit not given here
# [2] = system: control sera (pooled serum of ten healthy LUMC hospital workers; commercial negative donor pooled serum from the Dutch bloodbank); format: binding, human; set-up: Binding of Control serum LUMC to linear peptides / Binding of Control serum Blood-bank to linear peptides / Binding of Control serum LUMC to looped peptides / Binding of Control Serum Blood-Bank to Looped peptides / Binding of Control serum LUMC to linear peptides of the protein M of SARS-CoV Urbani / Binding of Control serum Blood-bank to linear peptides of the protein M of SARS-CoV Urbani / Binding of Control serum LUMC to looped peptides of the protein M of SARS-CoV Urbani / Binding of Control Serum Blood-Bank to Looped peptides of the protein M of SARS-CoV Urbani: unit not given here
# [3] = system: rabbit serum obtained by immunizing a rabbit with the SARS-CoV strain Frankfurt 1; format: binding; set-up: Binding of a rabbit serum to linear peptides / Binding of a rabbit serum to looped peptides / Rabbit serum linear peptides / Rabbit serum looped peptides / Binding of a rabbit serum to linear peptides of protein N of SARS-CoV Urbani (Rabbit serum linear peptides) / Binding of a rabbit serum to looped/cyclic peptides of protein N of SARS-CoV Urbani (Rabbit serum looped peptides): unit not given here
# [4] = system: recombinant human anti-SARS-CoV antibody 03-018; format: binding; set-up: Binding of antibody 03-018 to linear peptides of the N protein of SARS-CoV Urbani / Binding of antibody 03-018 to looped/cyclic peptides of the N protein of SARS-CoV Urbani: unit not given here
Sequence,Binding of serum 1a to linear peptide (PEPSCAN-ELISA) [1],Binding of serum 1a to looped/cyclic peptides of protein N of SARS-CoV Urbani [1],Binding of serum 1b to linear peptide (PEPSCAN-ELISA) [1],Binding of serum 1b to looped/cyclic peptides of protein N of SARS-CoV Urbani [1],Binding of serum 2 to linear peptide (PEPSCAN-ELISA) [1],Binding of serum 2 to looped/cyclic peptides of protein N of SARS-CoV Urbani [1],Binding of serum 6 to linear peptide (PEPSCAN-ELISA) [1],Binding of serum 6 to looped/cyclic peptides of protein N of SARS-CoV Urbani [1],Binding of serum 37 to linear peptide (PEPSCAN-ELISA) [1],Binding of serum 37 to looped/cyclic peptides of protein N of SARS-CoV Urbani [1],Binding of serum 62 to linear peptide (PEPSCAN-ELISA) [1],Binding of serum 62 to looped/cyclic peptides of protein N of SARS-CoV Urbani [1],Binding of serum London to linear peptide (PEPSCAN-ELISA) [1],Binding of serum London to looped/cyclic peptides of protein N of SARS-CoV Urbani [1],Binding of serum SARS-green to looped/cyclic peptides of protein N of SARS-CoV Urbani [1],Binding of serum SARS-yellow to looped/cyclic peptides of protein N of SARS-CoV Urbani [1],Binding of a rabbit serum to linear peptides of protein N of SARS-CoV Urbani (Rabbit serum linear peptides) [3],Binding of a rabbit serum to looped/cyclic peptides of protein N of SARS-CoV Urbani (Rabbit serum looped peptides) [3],Binding of antibody 03-018 to linear peptides of the N protein of SARS-CoV Urbani [4],Binding of antibody 03-018 to looped/cyclic peptides of the N protein of SARS-CoV Urbani [4],further results
SRGNSPARMASGGGE,0.3,0.2,0.2,0.1,0.1,0.2,0.2,0.1,0.6,0.4,0.6,0.3,0.6,0.3,0.2,0.1,0.1,0.2,0.1,0.2,Binding of serum SARS-green to linear peptide (PEPSCAN-ELISA) [1]: 0.2; Binding of serum SARS-yellow to linear peptide (PEPSCAN-ELISA) [1]: 0.6; Binding of Control Serum Blood-Bank to Looped peptides [2]: 0.5; Binding of Control serum Blood-bank to linear peptides [2]: 0.8; Binding of Control serum LUMC to linear peptides [2]: 0.8; Binding of Control serum LUMC to looped peptides [2]: 0.4
SRGNSRNSTPGSSRG,0.7,0.6,0.4,0.4,0.2,0.2,0.2,0.2,0.7,0.4,0.7,0.3,0.5,0.3,0.1,0.2,0.2,0.2,0.1,0.2,Binding of serum SARS-green to linear peptide (PEPSCAN-ELISA) [1]: 0.4; Binding of serum SARS-yellow to linear peptide (PEPSCAN-ELISA) [1]: 0.7; Binding of Control Serum Blood-Bank to Looped peptides [2]: 0.4; Binding of Control serum Blood-bank to linear peptides [2]: 0.9; Binding of Control serum LUMC to linear peptides [2]: 0.8; Binding of Control serum LUMC to looped peptides [2]: 0.4
SRNSTPGSSRGNSPA,0.7,0.6,0.5,0.6,0.4,0.4,0.2,0.4,0.8,0.5,0.9,0.5,0.6,0.4,0.3,0.4,0.1,0.6,0.1,0.2,Binding of serum SARS-green to linear peptide (PEPSCAN-ELISA) [1]: 0.4; Binding of serum SARS-yellow to linear peptide (PEPSCAN-ELISA) [1]: 0.7; Binding of Control Serum Blood-Bank to Looped peptides [2]: 0.7; Binding of Control serum Blood-bank to linear peptides [2]: 0.9; Binding of Control serum LUMC to linear peptides [2]: 0.9; Binding of Control serum LUMC to looped peptides [2]: 0.7
SRQLQNSMSGASADS,,0.2,,0.1,,0.3,,0.1,,0.4,,0.3,,0.2,0.3,0.2,0.5,0.6,0.1,0.2,Binding of serum 1a to linear peptides of protein N of SARS-CoV Urbani [1]: 0.2; Binding of serum 1b to linear peptides of protein N of SARS-CoV Urbani [1]: 0.1; Binding of serum 2 to linear peptides of protein N of SARS-CoV Urbani [1]: 0.2; Binding of serum 6 to linear peptides of protein N of SARS-CoV Urbani [1]: 0.2; Binding of serum 37 to linear peptides of protein N of SARS-CoV Urbani [1]: 0.8; Binding of serum 62 to linear peptides of protein N of SARS-CoV Urbani [1]: 0.6; Binding of serum London to linear peptides of protein N of SARS-CoV Urbani [1]: 0.6; Binding of serum SARS-green to linear peptides of protein N of SARS-CoV Urbani [1]: 0.5; Binding of serum SARS-yellow to linear peptides of protein N of SARS-CoV Urbani [1]: 0.5; Control Serum Blood-Bank Looped peptides [2]: 0.5; Control serum Blood-bank linear peptides [2]: 0.8; Control serum LUMC linear peptides [2]: 0.7; Control serum LUMC looped peptides [2]: 0.3
